Measurements published in patent US20060128716A1, “Use of 4-pyridylmethyl-phthalazine derivatives for the manufacture of a medicament for the treatment of myelodysplastic syndromes” (priority 2002, published 2006).

Columns and labels:
Flt-4 = Flt-4 (Homo sapiens, UniProt P35916); conditions: statement in words, no test described; cited from earlier work
advanced MDS = assay: Clinical example: oral PTK787 in patients with untreated advanced MDS; format: in vivo, human
Flt-1 = Flt-1 (Homo sapiens, UniProt P17948); conditions: statement in words, no test described; cited from earlier work
Flt-1, sequence (P17948 27-1338, species assumed): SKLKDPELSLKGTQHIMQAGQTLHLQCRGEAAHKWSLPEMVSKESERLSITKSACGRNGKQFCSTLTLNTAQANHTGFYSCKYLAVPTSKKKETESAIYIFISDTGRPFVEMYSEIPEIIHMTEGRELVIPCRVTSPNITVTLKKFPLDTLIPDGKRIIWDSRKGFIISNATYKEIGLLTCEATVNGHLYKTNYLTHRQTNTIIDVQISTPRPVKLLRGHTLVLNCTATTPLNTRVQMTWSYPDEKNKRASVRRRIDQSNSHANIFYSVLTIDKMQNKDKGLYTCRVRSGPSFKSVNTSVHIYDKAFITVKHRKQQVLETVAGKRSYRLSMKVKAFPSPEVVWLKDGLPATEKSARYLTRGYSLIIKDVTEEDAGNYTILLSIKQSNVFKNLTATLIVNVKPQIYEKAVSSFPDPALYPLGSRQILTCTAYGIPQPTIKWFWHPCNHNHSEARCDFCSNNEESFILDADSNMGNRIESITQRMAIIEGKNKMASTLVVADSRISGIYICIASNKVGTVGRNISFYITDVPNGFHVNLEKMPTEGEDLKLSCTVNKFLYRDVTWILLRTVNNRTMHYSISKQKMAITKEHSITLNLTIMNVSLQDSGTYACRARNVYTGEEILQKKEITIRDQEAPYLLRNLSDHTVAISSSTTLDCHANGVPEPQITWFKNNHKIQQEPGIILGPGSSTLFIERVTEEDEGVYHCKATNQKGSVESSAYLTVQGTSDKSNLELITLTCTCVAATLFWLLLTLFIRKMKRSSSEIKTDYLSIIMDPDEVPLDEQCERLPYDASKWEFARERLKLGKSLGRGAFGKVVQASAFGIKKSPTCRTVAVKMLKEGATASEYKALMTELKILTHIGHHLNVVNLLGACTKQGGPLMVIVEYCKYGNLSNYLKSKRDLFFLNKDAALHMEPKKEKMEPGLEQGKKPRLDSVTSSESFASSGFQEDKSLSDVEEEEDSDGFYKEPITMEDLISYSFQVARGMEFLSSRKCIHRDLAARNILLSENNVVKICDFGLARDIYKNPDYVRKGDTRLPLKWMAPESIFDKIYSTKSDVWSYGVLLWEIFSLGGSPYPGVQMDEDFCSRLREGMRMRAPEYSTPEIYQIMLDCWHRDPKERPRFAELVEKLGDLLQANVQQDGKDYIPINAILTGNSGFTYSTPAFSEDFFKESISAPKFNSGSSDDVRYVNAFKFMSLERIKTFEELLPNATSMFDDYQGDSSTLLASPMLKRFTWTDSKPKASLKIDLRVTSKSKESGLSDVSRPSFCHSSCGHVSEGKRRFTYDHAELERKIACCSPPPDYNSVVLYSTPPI

c-Kit = c-Kit (Homo sapiens, UniProt P10721); conditions: statement in words, no test described; cited from earlier work
c-Kit, sequence (P10721 26-976): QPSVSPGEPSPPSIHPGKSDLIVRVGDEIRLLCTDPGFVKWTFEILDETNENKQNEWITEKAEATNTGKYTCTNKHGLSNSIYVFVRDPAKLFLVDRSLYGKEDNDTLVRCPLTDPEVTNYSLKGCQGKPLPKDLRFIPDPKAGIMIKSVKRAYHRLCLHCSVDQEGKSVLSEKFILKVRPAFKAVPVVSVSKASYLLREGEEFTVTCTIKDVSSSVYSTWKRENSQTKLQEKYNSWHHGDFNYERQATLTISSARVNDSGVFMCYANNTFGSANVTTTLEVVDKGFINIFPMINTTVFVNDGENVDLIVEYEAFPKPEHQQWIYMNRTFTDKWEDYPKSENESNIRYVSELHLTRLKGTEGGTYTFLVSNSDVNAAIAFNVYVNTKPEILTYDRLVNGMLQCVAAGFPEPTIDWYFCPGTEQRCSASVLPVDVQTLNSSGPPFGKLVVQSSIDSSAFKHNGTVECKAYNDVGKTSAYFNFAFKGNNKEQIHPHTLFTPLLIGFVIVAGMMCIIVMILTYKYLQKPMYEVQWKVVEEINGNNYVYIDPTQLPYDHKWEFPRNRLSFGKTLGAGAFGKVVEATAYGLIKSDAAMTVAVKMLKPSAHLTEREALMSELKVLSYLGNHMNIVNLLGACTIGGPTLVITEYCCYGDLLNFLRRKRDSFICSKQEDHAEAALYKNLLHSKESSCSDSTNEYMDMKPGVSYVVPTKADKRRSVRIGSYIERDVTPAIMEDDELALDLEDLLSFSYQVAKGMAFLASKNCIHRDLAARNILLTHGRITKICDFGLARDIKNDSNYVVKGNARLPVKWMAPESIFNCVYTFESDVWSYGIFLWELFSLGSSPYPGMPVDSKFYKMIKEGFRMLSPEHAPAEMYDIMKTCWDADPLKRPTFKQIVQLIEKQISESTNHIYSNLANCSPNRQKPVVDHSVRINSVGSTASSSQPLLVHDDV

Flt-4, sequence (P35916 25-1363, species assumed): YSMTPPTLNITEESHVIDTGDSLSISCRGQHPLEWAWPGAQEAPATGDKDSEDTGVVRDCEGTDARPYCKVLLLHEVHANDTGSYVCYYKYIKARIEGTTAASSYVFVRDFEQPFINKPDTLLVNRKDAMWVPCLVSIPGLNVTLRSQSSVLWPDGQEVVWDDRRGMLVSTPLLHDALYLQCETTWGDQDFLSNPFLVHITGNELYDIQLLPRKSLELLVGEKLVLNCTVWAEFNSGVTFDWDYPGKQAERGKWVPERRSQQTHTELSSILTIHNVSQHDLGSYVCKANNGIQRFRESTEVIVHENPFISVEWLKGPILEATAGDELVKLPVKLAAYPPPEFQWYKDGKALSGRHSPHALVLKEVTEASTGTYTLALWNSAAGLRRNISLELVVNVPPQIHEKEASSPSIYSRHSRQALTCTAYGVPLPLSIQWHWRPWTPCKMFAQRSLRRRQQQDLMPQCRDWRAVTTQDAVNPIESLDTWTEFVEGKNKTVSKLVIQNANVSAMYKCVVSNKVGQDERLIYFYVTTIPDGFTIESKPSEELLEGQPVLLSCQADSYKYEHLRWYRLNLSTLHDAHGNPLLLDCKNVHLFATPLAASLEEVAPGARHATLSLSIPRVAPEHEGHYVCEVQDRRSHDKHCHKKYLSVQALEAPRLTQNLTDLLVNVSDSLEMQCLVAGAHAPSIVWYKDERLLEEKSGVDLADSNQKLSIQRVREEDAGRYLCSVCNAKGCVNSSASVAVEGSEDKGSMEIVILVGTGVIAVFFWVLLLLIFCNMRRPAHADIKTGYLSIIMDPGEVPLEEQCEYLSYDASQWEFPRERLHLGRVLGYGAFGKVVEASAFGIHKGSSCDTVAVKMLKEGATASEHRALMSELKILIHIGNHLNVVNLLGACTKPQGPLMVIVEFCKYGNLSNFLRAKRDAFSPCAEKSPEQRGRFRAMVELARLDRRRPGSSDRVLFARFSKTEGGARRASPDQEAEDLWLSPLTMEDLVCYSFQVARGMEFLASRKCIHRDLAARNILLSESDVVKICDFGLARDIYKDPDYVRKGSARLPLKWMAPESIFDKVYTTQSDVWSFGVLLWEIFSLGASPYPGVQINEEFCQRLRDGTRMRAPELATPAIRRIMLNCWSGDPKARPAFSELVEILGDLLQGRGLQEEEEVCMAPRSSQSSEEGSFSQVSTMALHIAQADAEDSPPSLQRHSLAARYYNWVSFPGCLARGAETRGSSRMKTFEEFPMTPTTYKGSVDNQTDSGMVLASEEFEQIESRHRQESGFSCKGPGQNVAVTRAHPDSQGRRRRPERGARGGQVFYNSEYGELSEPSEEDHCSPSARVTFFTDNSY

What does the source list for `Clc1ccc(Nc2nnc(Cc3ccncc3)c3ccccc23)cc1` [PTK787]?
inhibition of Flt-4 (Flt-4): can also inhibit; disease progression in patients with MDS (advanced MDS; in at least some patients with MDS): slows disease progression; patients with MDS showing stable disease with excellent performance status (advanced MDS; of twelve patients, 500 or 750 mg orally twice daily): Two; bone marrow blasts (advanced MDS; one patient with baseline 18% bone marrow blasts, remained for 8 months, 500 or 750 mg orally twice daily): under 30%; bone marrow blasts (advanced MDS; second patient with baseline 11.5% blasts, remained for 4 months, 500 or 750 mg orally twice daily): ≤ 16%; inhibition of Flt-1 (Flt-1): can also inhibit; activity against c-Kit (c-Kit): has activity against other tyrosine kinase receptors
